Seven compounds from US20230002334A1, “TRPM8 MODULATORS” (Givaudan SA, priority 2019, published 2023) can be followed below.

Bounds are passed on as bounds.

Assay [1] has as its system panelists (mouth, mucosa). As to the kind of experiment: Sensory studies in aqueous solution (trained panel, swilling in the mouth). As to conditions: 40 ppm in aqueous solution; for time of max cooling / Max. cooling: 20 mL swilled 60 seconds; for Max. cooling / Cooling after 1 h: averaged panel score on scale 0 to 10; for Cooling after 1 h: 1 h after swilling. The format is in vivo, human. On the procedure: The compounds as listed below in Table 2 were dissolved at a concenteration of 1 wt-% in propylene glycol. These solutions were then dispensed in appropriate quantities into deionized water containing 0.5 wt-% Poloxamer 407 (which is a hydrophilic non-ionic surfactant, e.g., commercially available from SigmaAldrich) and 0.25 wt-% Cremaphor® RH40 (obtained from BASF) as solubilizer, to obtain the desired final concentration of 40 ppm (parts per milion) of the respective compound.
A trained group of panelists evaluated the aqueous solutions containing test compound by swilling 20 mL of the solution in the mouth for 60 seconds, followed by spitting, without rinsing the mouth afterwards for the duration of the evaluation. Panelists evaluated and recorded the cooling performance as well as other sensorial and organoleptic attributes at different timepoints over a period of two hours. Cooling performance was rated on a scale from 0 to 10 with 0 being no effect and 10 being freezing. Scores were averaged for all panelists and the cooling intensity qualified as “N” for “none” (score of 0), “L” for “low” (score above 0, up to 1), “M” for “medium” (score above 1, up to 4), “S” for “strong” (score above 4, up to 8) and “E” for “extreme” (score above 8), which are provided in Table 2. […] All tasted samples developed cooling sensation starting during swilling (almost immediately upon contact with the mucosa) and before expectorating.

In a further assay the target is T1, hTRPM8 (Homo sapiens, UniProt Q7Z2W7).
T1 construct: expressed in transfected cells
As to the kind of experiment: Assay on TRPM8 modulators: calcium imaging (Fluo-4, Flexstation) in HEK293 cell line stably expressing hTRPM8. The format is cell-based. Particulars: HEK293 cells stably expressing hTRPM8, calcium influx, sigmoidal dose-response fit; read-out: EC50. Summed up:
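Calcium influx monitored by Fluo-4 (2.7 μM with […] probenecid, 1 h 37 °C loading) in HEK293 cells stably expressing hTRPM8, in HEPES buffer pH 7.4 with 2 mM CaCl2. Fluorescence read 15 s before and 105 s after adding serial compound dilutions. Maximal activation relative to solvent and 31.6 μM menthol; EC50 from sigmoidal fit.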

Another assay concerns panelists (mouth). As to the kind of experiment: Sensory studies in model dentifrice (trained panel, tooth brushing). The format is in vivo, human. Particulars: 100 ppm in model unflavored dentifrice; for time of max cooling / Max. cooling: 1 g brushed 60 seconds; for Max. cooling / Cooling after 1 h: averaged panel score on scale 0 to 10; for Cooling after 1 h: 1 h after brushing. On the procedure: The compounds listed in Table 3 were dissolved at a concenteration of 1 wt-% in propylene glycol. These solutions were then dispersed in appropriate quantities to obtain the desired final concentration of 100 ppm (parts per milion) of the test compound into a model, unflavored dentifrice, the formula of which is given below (ingredients obtained from the suppliers respectively indicated in parenthesis).
A trained group of panelists evaluated the dentifrice containing a compound of formula (I), by brushing their teeth with 1 g of the dentifrice using a toothbrush for 60 seconds, followed by spitting, without rinsing the mouth afterwards for the duration of the evaluation. Panelists evaluated and recorded the cooling performance as well as other sensorial and organoleptic attributes at different timepoints over a period of two hours. Cooling performance was rated on a scale from 0 to 10 with 0 being no effect and 10 being freezing. Scores were averaged for all panelists and the cooling intensity qualified as “N” for “none” (score of 0), “L” for “low” (score above 0, up to 1), “M” for “medium” (score above 1, up to 4), “S” for “strong” (score above 4, up to 8) and “E” for “extreme” (score above 8), which are summarized below in Table 3. […] All tasted samples developed cooling sensation starting during brushing, before expectorating.

T1 sequence (Q7Z2W7 whole entry): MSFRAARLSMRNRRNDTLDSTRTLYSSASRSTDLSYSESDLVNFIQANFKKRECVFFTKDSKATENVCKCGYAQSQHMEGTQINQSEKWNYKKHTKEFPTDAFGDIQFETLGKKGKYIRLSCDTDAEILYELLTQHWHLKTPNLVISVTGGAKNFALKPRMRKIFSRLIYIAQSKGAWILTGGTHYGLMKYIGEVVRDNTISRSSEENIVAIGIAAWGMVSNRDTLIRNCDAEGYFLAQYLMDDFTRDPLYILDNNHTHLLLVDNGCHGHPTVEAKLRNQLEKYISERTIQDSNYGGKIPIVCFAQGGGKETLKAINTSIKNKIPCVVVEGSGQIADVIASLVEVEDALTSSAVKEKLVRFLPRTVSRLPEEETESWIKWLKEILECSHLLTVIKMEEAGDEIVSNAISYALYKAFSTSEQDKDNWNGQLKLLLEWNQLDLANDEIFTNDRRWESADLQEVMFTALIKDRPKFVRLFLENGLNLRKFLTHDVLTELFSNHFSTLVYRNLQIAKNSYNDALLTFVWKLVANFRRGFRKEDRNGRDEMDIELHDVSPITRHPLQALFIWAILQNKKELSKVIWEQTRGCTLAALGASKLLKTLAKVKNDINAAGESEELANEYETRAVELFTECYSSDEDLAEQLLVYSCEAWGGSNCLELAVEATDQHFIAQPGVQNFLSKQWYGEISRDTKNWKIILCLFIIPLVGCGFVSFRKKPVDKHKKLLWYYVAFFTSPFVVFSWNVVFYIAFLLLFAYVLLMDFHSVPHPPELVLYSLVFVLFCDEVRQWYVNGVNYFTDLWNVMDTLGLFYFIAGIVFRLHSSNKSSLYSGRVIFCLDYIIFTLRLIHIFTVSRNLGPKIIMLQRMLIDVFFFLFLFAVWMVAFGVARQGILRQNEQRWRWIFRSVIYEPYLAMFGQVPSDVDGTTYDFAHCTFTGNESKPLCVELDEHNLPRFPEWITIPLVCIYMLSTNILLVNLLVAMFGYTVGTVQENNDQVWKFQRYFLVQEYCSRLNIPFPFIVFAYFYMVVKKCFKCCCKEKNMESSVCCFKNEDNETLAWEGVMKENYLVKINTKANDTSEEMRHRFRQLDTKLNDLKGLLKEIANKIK

In the case of `Cc1ccccc1[C@@]1(C)C[C@@H]2[C@@H]([C@@H](C)C1)N(C)OC2(C)C` (racemic) [Compound 46, rac-(3aR,5R,7S,7aR)-1,3,3,5,7-pentamethyl-5-(o-tolyl)octahydrobenzo[c]isoxazole], in assay [1], the “time of max cooling” value came out at 10 min; the Max. cooling result is on record as “S (“S” for “strong” (score above 4, up to 8))”; the “Cooling after 1 h” value was “M (“M” for “medium” (score above 1, up to 4))”. Further, the EC50 (as a rule, the concentration that produces a half-maximal response) on hTRPM8 is < 50 nM. Moreover, in the assay on panelists (mouth), the “time of max cooling” value was 20 min; the Max. cooling result is on record as “S (“S” for “strong” (score above 4, up to 8))”; the “Cooling after 1 h” value is reported as “M (“M” for “medium” (score above 1, up to 4))”.

For the compound `C[C@H]1C[C@@](C)(c2ccccc2)C[C@@H]2[C@@H]1N(C)OC2(C)C` (racemic) [Compound 48, rac-(3aR,5R,7S,7aR)-1,3,3,5,7-pentamethyl-5-phenyloctahydrobenzo[c]isoxazole], in assay [1], the “time of max cooling” value worked out at 10 min; the Max. cooling entry is given as “S (“S” for “strong” (score above 4, up to 8))”; the “Cooling after 1 h” value was “M (“M” for “medium” (score above 1, up to 4))”. For the same compound, the EC50 on hTRPM8 lay within 50 to 300 nM. In the assay on panelists (mouth), the “time of max cooling” value stood at 5 min; the Max. cooling entry is reported as “M (“M” for “medium” (score above 1, up to 4))”; the “Cooling after 1 h” value is “L (“L” for “low” (score above 0, up to 1))”.

In the case of `C[C@H]1C[C@@](C)(c2ccc(F)cc2)C[C@@H]2[C@@H]1N(C)OC2(C)C` (racemic) [Compound 102, rac-(3aR,5R,7S,7aR)-5-(4-fluorophenyl)-1,3,3,5,7-pentamethyloctahydrobenzo[c]isoxazole], in assay [1], the “time of max cooling” value came to 10 min; the Max. cooling entry is “S (“S” for “strong” (score above 4, up to 8))”; the “Cooling after 1 h” value was “M (“M” for “medium” (score above 1, up to 4))”. In addition, the half-maximal effective concentration (EC50) on hTRPM8 is < 50 nM. In addition, in the assay with panelists (mouth), the “time of max cooling” value came to 10 min; the Max. cooling entry is “M (“M” for “medium” (score above 1, up to 4))”; the “Cooling after 1 h” value is reported as “M (“M” for “medium” (score above 1, up to 4))”.

In the case of `Cc1ccc(C#N)cc1[C@@]1(C)C[C@@H]2[C@@H]([C@@H](C)C1)N(C)OC2(C)C` (stereo in doubt) [Compound 135, rac-4-methyl-3-((3aR,5R,7S,7aR)-1,3,3,5,7-pentamethyloctahydrobenzo[c]isoxazol-5-yl)benzonitrile], in assay [1], the “time of max cooling” value is 10 min; the Max. cooling result is recorded as “E (“E” for “extreme” (score above 8))”; the “Cooling after 1 h” value is “M (“M” for “medium” (score above 1, up to 4))”. Further, the 50% effective concentration (EC50) at hTRPM8 is < 50 nM. In the assay on panelists (mouth), the “time of max cooling” value was 5 min; the Max. cooling result is “S (“S” for “strong” (score above 4, up to 8))”; the “Cooling after 1 h” value was “M (“M” for “medium” (score above 1, up to 4))”.

In the case of `CC1=CC[C@H](C2CCC3C(C2)N(C)OC3(C)C)CC1` (stereo partly drawn) [Compound 7, 1,3,3-trimethyl-6-((R)-4-methylcyclohex-3-en-1-yl)octahydrobenzo[c]isoxazole], in assay [1], the “time of max cooling” value amounted to 10 min; the Max. cooling entry was “M (“M” for “medium” (score above 1, up to 4))”; the “Cooling after 1 h” value was “L (“L” for “low” (score above 0, up to 1))”. In addition, the EC50 on hTRPM8 was in the range of 300 to 1000 nM.

Turning to `CCN1OC(C)(C)C2CC(C)(CC=C(C)C)CC(C)C21` (stereo not shown) [Compound 9, 1-ethyl-3,3,5,7-tetramethyl-5-(3-methylbut-2-en-1-yl)octahydrobenzo[c]isoxazole], in assay [1], the “time of max cooling” value was 10 min; the Max. cooling result is “M (“M” for “medium” (score above 1, up to 4))”; the “Cooling after 1 h” value is listed as “M (“M” for “medium” (score above 1, up to 4))”. The EC50 at hTRPM8 was 50 to 300 nM.

Regarding `CC1CC(C)C2C(C1)C(C)(C)ON2C(C)C` (stereo not shown) [Compound 12, 1-isopropyl-3,3,5,7-tetramethyloctahydrobenzo[c]isoxazole], in assay [1], the “time of max cooling” value is 5 min; the Max. cooling result is “M (“M” for “medium” (score above 1, up to 4))”; the “Cooling after 1 h” value is on record as “L (“L” for “low” (score above 0, up to 1))”. Besides, the EC50 at hTRPM8 lay in the range of 300 to 1000 nM.
